ChEMBL document CHEMBL1201862, “PubChem BioAssay data set” (2004)
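Step 1: Grow cells in 96-well plates. Step 2: Expose to compound for 48 hours at 5 concentrations. Step 3: Interpolate endpoints linearly; if unreached, use highest concentration. GI50 is the concentration that inhibits growth by half.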 Activity calls are given as the source filed them. Rule as the data show it: active = GI50 up to about 1.1 µM and inactive = higher.

Key:
Assay in all cases: NCI-60 cell line screen, 48 h
[1] = tested on: 786-0
[2] = tested on: Hs-578T
[3] = tested on: MDA-N
[4] = tested on: HCT-116
[5] = tested on: DU-145
[6] = tested on: SF-268
[7] = tested on: SR
[8] = tested on: ACHN
[9] = tested on: MDA-MB-231
[10] = tested on: HOP-92
[11] = tested on: OVCAR-3
[12] = tested on: SN12C
[13] = tested on: UACC-257
[14] = tested on: SK-OV-3
[15] = tested on: OVCAR-8
[16] = tested on: RPMI-8226
[17] = tested on: CAKI-1
[18] = tested on: SF-539
[19] = tested on: SW-620
[20] = tested on: SF-295
[21] = tested on: MDA-MB-435
[22] = tested on: NCI/ADR-RES
[23] = tested on: SNB-19
[24] = tested on: NCI-H23
[25] = tested on: SK-MEL-5
[26] = tested on: KM12
[27] = tested on: UO-31
[28] = tested on: IGROV-1
[29] = tested on: SK-MEL-28
[30] = tested on: A549
[31] = tested on: OVCAR-4
[32] = tested on: MCF7
[33] = tested on: CCRF-CEM
[34] = tested on: COLO 205
[35] = tested on: PC-3
[36] = tested on: EKVX
[37] = tested on: HL-60
[38] = tested on: NCI-H460
[39] = tested on: MOLT-4
[40] = tested on: M14
[41] = tested on: BT-549
[42] = tested on: T47D
[43] = tested on: Malme-3M
[44] = tested on: HOP-62
[45] = tested on: HCT-15
[46] = tested on: UACC-62
[47] = tested on: K562
[48] = tested on: HT-29
[49] = tested on: A498
[50] = tested on: RXF 393
[51] = tested on: OVCAR-5
[52] = tested on: TK-10
[53] = tested on: SK-MEL-2
[54] = tested on: U-251
[55] = tested on: NCI-H522
[56] = tested on: SNB-75
[57] = tested on: NCI-H226
[58] = tested on: HCC 2998

COC(NC(N)=O)C(=O)O (stereo unspecified)
GI50 [1]: > 100 µM (inactive)
GI50 [2]: > 100 µM (inactive)
GI50 [3]: > 100 µM (inactive)
GI50 [4]: > 100 µM (inactive)
GI50 [5]: > 100 µM (inactive)
GI50 [6]: > 100 µM (inactive)
GI50 [7]: > 100 µM (inactive)
GI50 [8]: > 100 µM (inactive)
GI50 [9]: > 100 µM (inactive)
GI50 [10]: > 100 µM (inactive)
GI50 [11]: > 100 µM (inactive)
GI50 [12]: > 100 µM (inactive)
GI50 [13]: > 100 µM (inactive)
GI50 [14]: > 100 µM (inactive)
GI50 [15]: > 100 µM (inactive)
GI50 [16]: > 100 µM (inactive)
GI50 [17]: > 100 µM (inactive)
GI50 [18]: > 100 µM (inactive)
GI50 [19]: > 100 µM (inactive)
GI50 [20]: > 100 µM (inactive)
GI50 [21]: > 100 µM (inactive)
GI50 [22]: > 100 µM (inactive)
GI50 [23]: > 100 µM (inactive)
GI50 [24]: > 100 µM (inactive)
GI50 [25]: > 100 µM (inactive)
GI50 [26]: > 100 µM (inactive)
GI50 [27]: > 100 µM (inactive)
GI50 [28]: > 100 µM (inactive)
GI50 [29]: > 100 µM (inactive)
GI50 [30]: > 100 µM (inactive)
GI50 [31]: > 100 µM (inactive)
GI50 [32]: > 100 µM (inactive)
GI50 [33]: 11 µM (inactive)
GI50 [34]: > 100 µM (inactive)
GI50 [35]: > 100 µM (inactive)
GI50 [36]: > 100 µM (inactive)
GI50 [37]: 0.495 µM (active)
GI50 [38]: > 100 µM (inactive)
GI50 [39]: > 100 µM (inactive)
GI50 [40]: > 100 µM (inactive)
GI50 [41]: > 100 µM (inactive)
GI50 [42]: > 100 µM (inactive)
GI50 [43]: > 100 µM (inactive)
GI50 [44]: > 100 µM (inactive)
GI50 [45]: > 100 µM
GI50 [46]: > 100 µM (inactive)
GI50 [47]: > 100 µM (inactive)
GI50 [48]: > 100 µM (inactive)
GI50 [49]: > 100 µM (inactive)
GI50 [50]: > 100 µM (inactive)
GI50 [51]: > 100 µM (inactive)
GI50 [52]: > 100 µM (inactive)
GI50 [53]: > 100 µM (inactive)
GI50 [54]: > 100 µM (inactive)
GI50 [55]: > 100 µM (inactive)
GI50 [56]: > 100 µM (inactive)
GI50 [57]: > 100 µM (inactive)

Clc1cc2nnn(C3CCCO3)c2cc1Cl (stereo unspecified)
GI50 [1]: > 100 µM (inactive)
GI50 [2]: 62.7 µM (inactive)
GI50 [3]: > 100 µM (inactive)
GI50 [4]: > 100 µM (inactive)
GI50 [5]: > 100 µM (inactive)
GI50 [6]: > 100 µM (inactive)
GI50 [7]: 45.8 µM (inactive)
GI50 [9]: > 100 µM (inactive)
GI50 [11]: > 100 µM (inactive)
GI50 [12]: > 100 µM (inactive)
GI50 [13]: > 100 µM (inactive)
GI50 [14]: > 100 µM (inactive)
GI50 [15]: > 100 µM (inactive)
GI50 [17]: > 100 µM (inactive)
GI50 [18]: > 100 µM (inactive)
GI50 [20]: > 100 µM (inactive)
GI50 [21]: > 100 µM (inactive)
GI50 [22]: > 100 µM (inactive)
GI50 [24]: 60.1 µM (inactive)
GI50 [25]: 75.3 µM (inactive)
GI50 [28]: > 100 µM (inactive)
GI50 [30]: > 100 µM (inactive)
GI50 [32]: > 100 µM (inactive)
GI50 [33]: > 100 µM (inactive)
GI50 [34]: > 100 µM (inactive)
GI50 [35]: > 100 µM (inactive)
GI50 [36]: 66.1 µM (inactive)
GI50 [37]: > 100 µM (inactive)
GI50 [38]: > 100 µM (inactive)
GI50 [39]: 83.6 µM (inactive)
GI50 [40]: > 100 µM (inactive)
GI50 [41]: 49.7 µM (inactive)
GI50 [42]: > 100 µM (inactive)
GI50 [43]: > 100 µM (inactive)
GI50 [44]: > 100 µM (inactive)
GI50 [58]: > 100 µM (inactive)
GI50 [45]: > 100 µM
GI50 [46]: > 100 µM (inactive)
GI50 [47]: > 100 µM (inactive)
GI50 [48]: > 100 µM (inactive)
GI50 [49]: 98.4 µM (inactive)
GI50 [50]: > 100 µM (inactive)
GI50 [51]: > 100 µM (inactive)
GI50 [52]: > 100 µM (inactive)
GI50 [53]: > 100 µM (inactive)
GI50 [54]: > 100 µM (inactive)
GI50 [55]: > 100 µM (inactive)
GI50 [56]: 20 µM (inactive)
GI50 [57]: > 100 µM (inactive)
